Experiments:
Assay in all cases: CA Activity Assay
Settings in all cases: pH 7.4; 25 °C
[1] = biological target: Carbonic anhydrase 1 (Homo sapiens, UniProt P00915)
[2] = biological target: Carbonic anhydrase 2 (Homo sapiens, UniProt P00918)
[3] = biological target: Carbonic anhydrase 6 (Homo sapiens, UniProt P23280)
Chain of Carbonic anhydrase 6 (P23280 whole entry): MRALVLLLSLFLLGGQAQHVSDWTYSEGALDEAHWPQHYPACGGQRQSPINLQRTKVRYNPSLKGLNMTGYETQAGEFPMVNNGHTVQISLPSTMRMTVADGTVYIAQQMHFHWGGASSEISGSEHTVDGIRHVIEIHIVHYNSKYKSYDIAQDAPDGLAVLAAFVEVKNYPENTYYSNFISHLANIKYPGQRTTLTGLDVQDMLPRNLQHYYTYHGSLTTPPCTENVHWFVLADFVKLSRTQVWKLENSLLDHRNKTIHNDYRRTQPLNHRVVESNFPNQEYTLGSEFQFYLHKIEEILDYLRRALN

Chain of Carbonic anhydrase 1 (P00915 whole entry): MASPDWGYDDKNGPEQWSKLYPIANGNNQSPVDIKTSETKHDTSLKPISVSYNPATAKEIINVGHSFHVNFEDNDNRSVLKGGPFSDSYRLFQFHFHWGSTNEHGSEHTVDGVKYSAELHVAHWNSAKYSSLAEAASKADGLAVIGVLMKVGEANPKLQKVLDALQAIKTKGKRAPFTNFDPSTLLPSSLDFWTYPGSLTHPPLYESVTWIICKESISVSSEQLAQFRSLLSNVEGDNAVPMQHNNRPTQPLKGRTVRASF

Structure (SMILES)	Ki [1]	Ki [2]	Ki [3]
NC1CCc2cc(O)c(O)cc2C1 (stereo unspecified)	41100 nM	440 nM	1150 nM
NC1CCc2c(ccc(O)c2O)C1 (stereo unspecified) [6-Amino-5,6,7,8-tetrahydro-naphthalene-1,2-diol]	45100 nM	380 nM	970 nM
NC1Cc2cc(Br)c(Br)cc2C1 [CA inhibitor, 5]		470000 nM	780 nM
NC1Cc2ccc(Br)cc2C1 (stereo unspecified) [CA inhibitor, 6]	161000 nM	143000 nM	580 nM

— BindingDB's records for doi:10.3109/14756366.2011.591290 (Agri Ibrahim Cecen University, 2012)
